Reference: ChEMBL document CHEMBL5360622, “Leucettinibs, a Class of DYRK/CLK Kinase Inhibitors Inspired by the Marine Sponge Natural Product Leucettamine B” (J Med Chem, 2023)
pIC50: −log10 of the molar value.

Legend:
[1] = target: Casein kinase I isoform epsilon (Homo sapiens, UniProt P49674)
[2] = target: Cyclin-dependent kinase 5/CDK5 activator 1 (Homo sapiens, UniProt Q00535); format: cell-based, Sf9
[3] = target: Dual specificity protein kinase CLK1 (Homo sapiens, UniProt P49759); format: cell-based, Sf9
[4] = target: Dual specificity protein kinase CLK2 (Homo sapiens, UniProt P49760)
[5] = target: Dual specificity protein kinase CLK3 (Homo sapiens, UniProt P49761); format: cell-based, Sf9
[6] = target: Dual specificity protein kinase CLK4 (Homo sapiens, UniProt Q9HAZ1)
[7] = target: T1, Dual specificity tyrosine-phosphorylation-regulated kinase 2 (Homo sapiens, UniProt Q92630)
T1 sequence (Q92630 whole entry): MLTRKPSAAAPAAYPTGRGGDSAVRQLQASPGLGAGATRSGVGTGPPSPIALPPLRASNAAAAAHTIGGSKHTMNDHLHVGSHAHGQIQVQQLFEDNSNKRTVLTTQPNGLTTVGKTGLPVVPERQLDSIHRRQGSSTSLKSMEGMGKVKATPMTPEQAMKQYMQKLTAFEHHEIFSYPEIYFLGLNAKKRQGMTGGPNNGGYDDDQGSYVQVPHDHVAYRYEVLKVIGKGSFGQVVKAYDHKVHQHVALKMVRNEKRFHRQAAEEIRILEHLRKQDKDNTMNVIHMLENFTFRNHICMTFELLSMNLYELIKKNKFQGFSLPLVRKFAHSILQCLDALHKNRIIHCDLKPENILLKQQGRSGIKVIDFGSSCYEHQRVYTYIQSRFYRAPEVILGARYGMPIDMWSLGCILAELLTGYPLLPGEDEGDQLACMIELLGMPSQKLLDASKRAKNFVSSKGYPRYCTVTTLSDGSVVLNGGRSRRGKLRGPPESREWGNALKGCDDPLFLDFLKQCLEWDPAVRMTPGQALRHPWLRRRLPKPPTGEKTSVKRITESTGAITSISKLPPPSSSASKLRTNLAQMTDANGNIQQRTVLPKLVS

[8] = target: T2, Dual specificity tyrosine-phosphorylation-regulated kinase 3 (Homo sapiens, UniProt O43781)
T2 sequence (O43781 whole entry): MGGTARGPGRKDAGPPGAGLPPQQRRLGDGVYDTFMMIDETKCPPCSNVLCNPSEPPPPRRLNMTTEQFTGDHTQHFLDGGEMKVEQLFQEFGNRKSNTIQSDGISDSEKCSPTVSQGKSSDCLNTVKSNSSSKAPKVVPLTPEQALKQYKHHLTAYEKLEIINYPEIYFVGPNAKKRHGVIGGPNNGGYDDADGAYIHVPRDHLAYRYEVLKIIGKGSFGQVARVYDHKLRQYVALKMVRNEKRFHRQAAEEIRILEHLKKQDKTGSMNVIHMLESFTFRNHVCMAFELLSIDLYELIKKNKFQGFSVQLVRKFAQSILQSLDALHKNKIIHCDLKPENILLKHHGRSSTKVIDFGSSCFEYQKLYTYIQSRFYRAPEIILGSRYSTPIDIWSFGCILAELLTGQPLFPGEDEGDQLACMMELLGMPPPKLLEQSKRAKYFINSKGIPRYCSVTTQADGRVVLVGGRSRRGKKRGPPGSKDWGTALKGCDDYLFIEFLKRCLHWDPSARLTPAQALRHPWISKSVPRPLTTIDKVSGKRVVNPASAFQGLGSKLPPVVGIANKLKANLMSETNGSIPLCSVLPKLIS

[9] = target: T3, Dual specificity tyrosine-phosphorylation-regulated kinase 4 (Homo sapiens, UniProt Q9NR20)
T3 sequence (Q9NR20 whole entry): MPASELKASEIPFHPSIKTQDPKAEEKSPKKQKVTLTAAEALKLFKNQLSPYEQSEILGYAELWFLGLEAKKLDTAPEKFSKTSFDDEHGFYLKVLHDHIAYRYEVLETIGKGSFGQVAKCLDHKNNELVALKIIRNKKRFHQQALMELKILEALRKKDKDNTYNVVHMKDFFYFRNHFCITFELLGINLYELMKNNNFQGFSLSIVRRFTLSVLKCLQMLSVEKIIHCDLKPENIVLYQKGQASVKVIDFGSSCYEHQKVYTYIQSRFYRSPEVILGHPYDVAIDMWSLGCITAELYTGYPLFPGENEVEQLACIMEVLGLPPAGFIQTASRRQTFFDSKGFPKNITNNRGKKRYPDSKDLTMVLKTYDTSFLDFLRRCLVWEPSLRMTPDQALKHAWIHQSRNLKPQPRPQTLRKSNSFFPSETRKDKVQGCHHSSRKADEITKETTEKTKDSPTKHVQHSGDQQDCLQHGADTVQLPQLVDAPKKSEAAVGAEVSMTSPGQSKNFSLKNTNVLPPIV

[10] = target: Glycogen synthase kinase-3 beta (Homo sapiens, UniProt P49841); format: cell-based, Sf9
[11] = target: Dual specificity tyrosine-phosphorylation-regulated kinase 1A (Homo sapiens, UniProt Q13627)

Dual specificity protein kinase CLK4, sequence (Q9HAZ1 whole entry): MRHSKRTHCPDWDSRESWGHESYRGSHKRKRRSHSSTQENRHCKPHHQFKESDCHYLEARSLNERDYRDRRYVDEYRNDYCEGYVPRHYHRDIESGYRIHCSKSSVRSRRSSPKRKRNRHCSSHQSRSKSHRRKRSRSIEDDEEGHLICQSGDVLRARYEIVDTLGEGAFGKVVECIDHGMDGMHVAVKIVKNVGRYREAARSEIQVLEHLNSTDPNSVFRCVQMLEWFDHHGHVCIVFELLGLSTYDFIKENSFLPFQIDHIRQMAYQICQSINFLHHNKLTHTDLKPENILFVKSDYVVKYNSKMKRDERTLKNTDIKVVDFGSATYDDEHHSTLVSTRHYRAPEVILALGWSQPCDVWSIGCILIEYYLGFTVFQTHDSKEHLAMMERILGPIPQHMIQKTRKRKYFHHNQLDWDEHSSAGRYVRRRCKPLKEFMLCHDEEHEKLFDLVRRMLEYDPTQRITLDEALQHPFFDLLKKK
Cyclin-dependent kinase 5/CDK5 activator 1, sequence (Q00535 whole entry): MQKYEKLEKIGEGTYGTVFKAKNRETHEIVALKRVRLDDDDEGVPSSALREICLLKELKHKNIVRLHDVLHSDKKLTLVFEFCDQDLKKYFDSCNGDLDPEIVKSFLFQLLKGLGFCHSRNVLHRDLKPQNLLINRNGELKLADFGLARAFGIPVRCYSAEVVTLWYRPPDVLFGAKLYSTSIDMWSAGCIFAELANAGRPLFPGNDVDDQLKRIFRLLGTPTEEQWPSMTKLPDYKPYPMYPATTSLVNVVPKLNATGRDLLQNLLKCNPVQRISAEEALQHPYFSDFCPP
Cyclin-dependent kinase 5/CDK5 activator 1, sequence (Q15078 whole entry, further chain): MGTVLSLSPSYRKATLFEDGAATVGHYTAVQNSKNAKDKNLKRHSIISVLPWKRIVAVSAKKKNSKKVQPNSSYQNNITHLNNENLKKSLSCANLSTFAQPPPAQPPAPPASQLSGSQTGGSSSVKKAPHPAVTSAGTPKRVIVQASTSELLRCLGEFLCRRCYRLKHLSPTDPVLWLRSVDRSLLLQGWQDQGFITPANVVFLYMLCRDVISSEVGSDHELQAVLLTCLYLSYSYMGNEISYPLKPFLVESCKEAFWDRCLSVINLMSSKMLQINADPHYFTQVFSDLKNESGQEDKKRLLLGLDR
Glycogen synthase kinase-3 beta, sequence (P49841 whole entry): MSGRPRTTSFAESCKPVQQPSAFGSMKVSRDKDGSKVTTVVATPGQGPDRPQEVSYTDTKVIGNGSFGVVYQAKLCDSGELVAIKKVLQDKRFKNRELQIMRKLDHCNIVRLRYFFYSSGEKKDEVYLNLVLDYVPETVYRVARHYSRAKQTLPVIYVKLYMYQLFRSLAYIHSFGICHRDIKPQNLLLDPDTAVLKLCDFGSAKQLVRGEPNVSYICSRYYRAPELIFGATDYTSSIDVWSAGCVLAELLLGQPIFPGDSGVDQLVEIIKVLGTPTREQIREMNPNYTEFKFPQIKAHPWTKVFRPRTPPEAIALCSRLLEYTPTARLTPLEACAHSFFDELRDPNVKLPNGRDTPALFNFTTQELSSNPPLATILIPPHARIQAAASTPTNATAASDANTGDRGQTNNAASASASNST
Dual specificity protein kinase CLK3, sequence (P49761 whole entry): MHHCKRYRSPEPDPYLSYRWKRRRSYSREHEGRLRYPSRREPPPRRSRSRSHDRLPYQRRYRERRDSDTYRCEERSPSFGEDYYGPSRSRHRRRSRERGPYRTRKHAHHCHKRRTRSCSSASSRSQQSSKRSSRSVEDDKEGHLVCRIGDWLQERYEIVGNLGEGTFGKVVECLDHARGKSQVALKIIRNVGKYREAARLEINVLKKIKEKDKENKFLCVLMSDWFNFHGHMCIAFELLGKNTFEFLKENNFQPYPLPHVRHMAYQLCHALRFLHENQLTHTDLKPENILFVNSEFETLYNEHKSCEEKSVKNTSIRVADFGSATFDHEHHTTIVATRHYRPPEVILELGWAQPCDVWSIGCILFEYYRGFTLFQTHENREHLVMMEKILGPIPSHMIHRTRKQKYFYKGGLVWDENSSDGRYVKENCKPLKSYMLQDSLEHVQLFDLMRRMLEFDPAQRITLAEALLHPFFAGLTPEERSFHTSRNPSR
Casein kinase I isoform epsilon, sequence (P49674 whole entry, canonical isoform): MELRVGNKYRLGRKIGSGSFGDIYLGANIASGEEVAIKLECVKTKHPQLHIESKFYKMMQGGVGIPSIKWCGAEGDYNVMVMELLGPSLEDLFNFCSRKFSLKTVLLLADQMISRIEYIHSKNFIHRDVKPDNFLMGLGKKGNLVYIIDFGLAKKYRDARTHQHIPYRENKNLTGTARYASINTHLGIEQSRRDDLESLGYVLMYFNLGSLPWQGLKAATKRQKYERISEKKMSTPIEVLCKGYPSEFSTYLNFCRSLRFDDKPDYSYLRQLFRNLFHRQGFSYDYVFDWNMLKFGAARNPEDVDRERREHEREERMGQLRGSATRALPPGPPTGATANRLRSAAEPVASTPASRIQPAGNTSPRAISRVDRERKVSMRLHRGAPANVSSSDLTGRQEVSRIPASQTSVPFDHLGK
Dual specificity protein kinase CLK1, sequence (P49759 whole entry): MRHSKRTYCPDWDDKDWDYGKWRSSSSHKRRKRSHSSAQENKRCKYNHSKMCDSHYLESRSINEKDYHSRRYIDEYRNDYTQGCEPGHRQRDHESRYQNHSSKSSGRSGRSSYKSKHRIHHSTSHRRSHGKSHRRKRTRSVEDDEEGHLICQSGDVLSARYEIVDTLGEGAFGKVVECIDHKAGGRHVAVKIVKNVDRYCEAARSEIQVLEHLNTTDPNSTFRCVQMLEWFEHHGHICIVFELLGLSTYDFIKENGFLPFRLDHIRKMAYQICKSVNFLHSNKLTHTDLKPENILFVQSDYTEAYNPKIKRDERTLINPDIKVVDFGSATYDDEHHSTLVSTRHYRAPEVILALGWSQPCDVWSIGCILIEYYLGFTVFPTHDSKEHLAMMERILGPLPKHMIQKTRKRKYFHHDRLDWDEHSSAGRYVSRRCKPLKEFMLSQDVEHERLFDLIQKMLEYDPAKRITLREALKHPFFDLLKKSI
Dual specificity protein kinase CLK2, sequence (P49760 whole entry): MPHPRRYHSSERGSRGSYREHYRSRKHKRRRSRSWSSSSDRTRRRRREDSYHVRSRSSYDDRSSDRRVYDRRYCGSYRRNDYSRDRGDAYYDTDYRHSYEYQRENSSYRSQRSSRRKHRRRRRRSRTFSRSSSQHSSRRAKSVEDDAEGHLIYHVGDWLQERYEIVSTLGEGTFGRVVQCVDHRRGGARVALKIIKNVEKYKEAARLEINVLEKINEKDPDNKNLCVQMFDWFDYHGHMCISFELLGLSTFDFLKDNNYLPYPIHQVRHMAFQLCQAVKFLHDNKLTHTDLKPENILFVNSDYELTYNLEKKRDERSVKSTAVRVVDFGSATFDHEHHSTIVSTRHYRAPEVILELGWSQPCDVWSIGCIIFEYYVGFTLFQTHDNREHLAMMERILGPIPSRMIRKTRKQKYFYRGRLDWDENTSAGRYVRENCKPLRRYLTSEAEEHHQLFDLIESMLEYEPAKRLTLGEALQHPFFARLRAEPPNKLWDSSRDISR

| pIC50 [1] | pIC50 [2] | pIC50 [3] | pIC50 [4] | pIC50 [5] | pIC50 [6] | pIC50 [7] | pIC50 [8] | pIC50 [9] | pIC50 [10] | pIC50 [11] | SMILES |
| --- | --- | --- | --- | --- | --- | --- | --- | --- | --- | --- | --- |
| < 5.00 | < 5.00 | < 5.00 | < 5.00 | < 5.00 | < 5.00 | < 5.00 | < 5.00 | < 5.00 | < 5.00 | < 5.00 | O=C1NC(NC2CCCCCC2)=N/C1=C\c1ccc2[nH]ccc2c1 |
| < 5.00 | < 5.00 | < 5.00 | < 5.00 | < 5.00 | < 5.00 | < 5.00 | < 5.00 | < 5.00 | < 5.00 | < 5.00 | Cn1cnc2cc(/C=C3\N=C(NC4CCCCCC4)NC3=O)ccc21 |
| – | < 5.00 | 8.30 | 7.85 | 5.97 | 8.40 | 6.59 | 7.13 | 6.18 | 5.11 | 8.00 | O=C1NC(NC23CC4CC(CC(C4)C2)C3)=N/C1=C\c1ccc2[nH]ncc2c1 |
| < 5.00 | < 5.00 | < 5.00 | < 5.00 | < 5.00 | < 5.00 | < 5.00 | < 5.00 | < 5.00 | < 5.00 | < 5.00 | Cn1ccc2cc(/C=C3\N=C(NC45CC6CC(CC(C6)C4)C5)NC3=O)ccc21 |
| < 5.00 | < 5.00 | 7.04 | 6.02 | 5.37 | 7.37 | – | 5.68 | 5.88 | 5.08 | 7.13 | O=C1NC(NC2CCCCC2)=N/C1=C\c1ccc2c(c1)OCO2 |
| < 5.00 | < 5.00 | < 5.00 | < 5.00 | < 5.00 | < 5.00 | < 5.00 | < 5.00 | < 5.00 | < 5.00 | < 5.00 | Cn1ccc2cc(/C=C3\N=C(NC4CCCCC4)NC3=O)ccc21 |
| < 5.00 | < 5.00 | 7.74 | 6.76 | 6.55 | 7.96 | 6.25 | 5.94 | 6.21 | 5.52 | 7.89 | O=C1NC(NC2CCCCCC2)=N/C1=C\c1ccc2ncoc2c1 |
| < 5.00 | < 5.00 | < 5.00 | < 5.00 | < 5.00 | < 5.00 | < 5.00 | < 5.00 | < 5.00 | < 5.00 | < 5.00 | Cn1cnc2cc(/C=C3\N=C(NC4CCCCC4)NC3=O)ccc21 |
| < 5.00 | 6.19 | 8.05 | 8.52 | 5.98 | 8.52 | 7.02 | 7.17 | 7.10 | 5.81 | 8.15 | Cn1cnc2ccc(/C=C3\N=C(NC45CC6CC(CC(C6)C4)C5)NC3=O)cc21 |
| < 5.00 | < 5.00 | < 5.00 | < 5.00 | < 5.00 | < 5.00 | < 5.00 | < 5.00 | < 5.00 | < 5.00 | < 5.00 | Cn1cnc2cc(/C=C3\N=C(NC45CC6CC(CC(C6)C4)C5)NC3=O)ccc21 |
| < 5.00 | 6.55 | 8.10 | – | 5.07 | 8.52 | 7.21 | 7.42 | – | 6.69 | 9.00 | O=C1NC(NC23CC4CC(CC(C4)C2)C3)=N/C1=C\c1ccc2ncoc2c1 |
| < 5.00 | < 5.00 | 5.05 | 5.44 | < 5.00 | 5.59 | < 5.00 | < 5.00 | < 5.00 | < 5.00 | 6.02 | O=C1NC(NC23CC4CC(CC(C4)C2)C3)=N/C1=C\c1ccc2[nH]ccc2c1 |
| < 5.00 | < 5.00 | < 5.00 | < 5.00 | < 5.00 | < 5.00 | < 5.00 | < 5.00 | < 5.00 | < 5.00 | < 5.00 | O=C1NC(NC2CCCCC2)=N/C1=C\c1ccc2[nH]ccc2c1 |
| < 5.00 | < 5.00 | 7.38 | 6.08 | 5.35 | 7.70 | 5.29 | 5.50 | 5.91 | < 5.00 | 7.33 | O=C1NC(NC2CCCCCC2)=N/C1=C\c1ccc2c(c1)OCO2 |
| < 5.00 | < 5.00 | < 5.00 | < 5.00 | < 5.00 | < 5.00 | < 5.00 | < 5.00 | < 5.00 | < 5.00 | < 5.00 | Cn1ccc2cc(/C=C3\N=C(NC4CCCCCC4)NC3=O)ccc21 |
| < 5.00 | < 5.00 | 6.98 | 5.90 | 5.27 | 7.28 | 5.47 | – | 5.52 | < 5.00 | 6.63 | O=C1NC(NC2CCCCC2)=N/C1=C\c1ccc2c(c1)CCO2 |
| < 5.00 | < 5.00 | 7.70 | 7.07 | 6.55 | 8.15 | 6.38 | 5.91 | 5.64 | 5.29 | 8.15 | COC(=O)[C@H](C)NC1=N/C(=C\c2ccc3ncsc3c2)C(=O)N1 |
| – | – | 7.77 | 7.17 | 5.96 | 7.72 | 8.10 | 7.85 | – | 6.92 | 8.15 | CN1CCN(c2ccc(NC3=N/C(=C\c4ccc5c(c4)OCCO5)C(=O)N3)cc2)CC1 |
| < 5.00 | < 5.00 | 6.99 | 7.77 | < 5.00 | 7.18 | 5.79 | – | 6.20 | < 5.00 | 7.30 | O=C1NC(NC23CC4CC(CC(C4)C2)C3)=N/C1=C\c1ccc2c(c1)CCO2 |
| – | – | 7.92 | 7.52 | 6.15 | 7.92 | 7.82 | 8.00 | – | 6.70 | 7.85 | COc1ccc(/C=C2\N=C(Nc3ccc(N4CCN(C)CC4)cc3)NC2=O)cc1O |
| 7.21 | 7.60 | 7.96 | – | 7.05 | 8.40 | 8.00 | 8.70 | 6.84 | 7.03 | 9.00 | O=C1NC(NC23CC4(F)CC(F)(CC(F)(C4)C2)C3)=N/C1=C\c1ccc2ncsc2c1 |
